Like-named read-outs stand apart in the source and are kept apart here.
Molecular target: T1, recombinant human serotonin receptor 5-HT2A (Homo sapiens, UniProt P28223)
T1 construct: expressed in transfected cells; method B: loaded with Ca2+ dye
Assay: 5-HT2A antagonist Ca2+ assay in CHO-K1 cells (method A aequorin luminescence / method B FLIPR fluorescence)
Format: cell-based
Settings: antagonist mode vs EC80 of reference agonist, method A or B
From the text: The methods utilized to assess the inhibitory activity of compounds on recombinant human serotonin receptor 5-HT2A was based upon previously published approaches [Jerman J C, Brough S J, Gager T, Wood M, Coldwell M C, Smart D, Middlemiss D N. Pharmacological characterisation of human 5-HT2 receptor subtypes. European Journal of Pharmacology 2001 Feb. 23; 414(1):23-30; Le Poul E, Hisada S, Mizuguchi Y, Dupriez V J, Burgeon E, Detheux M. Adaptation of aequorin functional assay to high throughput screening. J Biomolecular Screening 2002 February; 7(1):57-65.] The 5-HT2A receptor signals through Gq-phospholipase signaling cascade, which leads to a transient increase in free intracellular […] concentration. Both 5-HT2A assay methods rely upon monitoring these changes in Ca^2+ concentration.
In method A [Le Poul E, Hisada S, Mizuguchi Y, Dupriez V J, Burgeon E, Detheux M. (2002)], CHO-K1 cells engineered to stably co-express both recombinant human 5-HT2A and mitochondrial apoaequorin are used. […] For agonist testing, 50 microliters of cell suspension is mixed with 50 microliters of a solution containing test compound or reference agonist in a 96-well standard geometry microtiter plate. The resulting emission of light was recorded using a Hamamatsu Functional Drug Screening System 6000 (FDSS 6000) luminometer. For antagonist testing, 100 microliters of the solution of reference agonist (to yield an agonist concentration, EC80, sufficient to cause the cells to generate an 80% maximal luminescence response in the absence of any antagonist) is injected into the mix of cells and test compound, 15 minutes after the first injection. The resulting emission of light is recorded using Hamamatsu FDSS 6000 luminometer. IC50 values are calculated (from compound concentration dependent inhibition of agonist-induced 5-HT2A-dependent light emission) by non-linear least squares regression of the data (percent inhibition) onto equation (1) above.
In method B [Jerman J C, Brough S J, Gager T, Wood M, Coldwell M C, Smart D, Middlemiss D N. (2001)], CHO-K1 cells which had been engineered to stably co-express recombinant human 5-HT2A are used in assay done similarly to method A. In method B, the cells are loaded with a fluorogenic Ca^2+ indicator dye by pre-incubation. Addition of the reference agonist serotonin causes a transient increase in fluorescence in a suspension of the loaded cells, which can be detected using the Molecular Devices fluorometric imaging plate reader (FLIPR), a high-throughput platform for 96-well cell-based assays. Addition of test compounds that are 5-HT2A antagonists, prior to the addition of the agonist (to yield an agonist concentration, EC80, sufficient to cause the cells to generate an 80% maximal fluorescence response in the absence of any antagonist), reduces the amount of fluorescence detected by the FLIPR upon agonist addition. IC50 values are calculated (from compound concentration dependent inhibition of agonist-induced 5-HT2A-dependent fluorescence) by non-linear least squares regression of the data (percent inhibition) onto equation (1) above.

T1 sequence (P28223 whole entry): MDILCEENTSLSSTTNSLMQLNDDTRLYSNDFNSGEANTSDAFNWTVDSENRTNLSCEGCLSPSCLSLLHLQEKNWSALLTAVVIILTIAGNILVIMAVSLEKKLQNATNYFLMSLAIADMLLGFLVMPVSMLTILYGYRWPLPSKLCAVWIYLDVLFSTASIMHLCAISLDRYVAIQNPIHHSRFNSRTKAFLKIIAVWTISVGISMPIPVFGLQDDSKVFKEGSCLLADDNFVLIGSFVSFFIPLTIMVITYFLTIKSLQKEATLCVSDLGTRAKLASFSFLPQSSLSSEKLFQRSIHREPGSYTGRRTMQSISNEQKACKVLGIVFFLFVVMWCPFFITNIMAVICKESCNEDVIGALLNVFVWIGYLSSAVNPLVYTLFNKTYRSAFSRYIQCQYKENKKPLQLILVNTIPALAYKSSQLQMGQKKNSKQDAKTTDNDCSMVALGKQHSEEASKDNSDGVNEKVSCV

Row | Compound | IC50 (read-out: 5HT2A IC50) | IC50 (5HT2A IC50, μM)
1 | COc1ccc2c(c1)C(CN1CCC(OCc3ccncc3)CC1)CC2 (stereo not drawn) [Example 248, 4-(((1-((6-methoxy-2,3-dihydro-1H-inden-1-yl)methyl)piperidin-4-yl)oxy)methyl)pyridine] | > 3.16 µM | –
2 | COc1ccccc1OC1CCN(CC2Cc3ccccc3C2)[C@@H](C)C1 (single isomer, unassigned) [Example 148] | 1.44 µM | –
3 | COc1ccc2c(c1)C(CN1C[C@H]3CC[C@@H](C1)N3c1ccccc1)CC2 (stereo partly drawn) [Example 296, (1R,5S)-3-((6-methoxy-2,3-dihydro-1H-inden-1-yl)methyl)-8-phenyl-3,8-diazabicyclo[3.2.1]octane] | > 10 µM | –
4 | O[C@H](COC1CCCCC1)CN1CC2(CC(Oc3ccccc3)CO2)C1 (stereo partly drawn) [Example 371, (2S)-1-(cyclohexyloxy)-3-(7-phenoxy-5-oxa-2-azaspiro[3.4]octan-2-yl)propan-2-ol] | 0.09 µM | –
5 | Fc1cccc2c1C(CN1CCC(Oc3ccncc3)CC1)CC2 (stereo not drawn) [Example 118, 4-((1-((7-fluoro-2,3-dihydro-1H-inden-1-yl)methyl)piperidin-4-yl)oxy)pyridine] | 1.78 µM | –
6 | O[C@H](COC1CCCCC1)CN1CCC[C@H](Oc2ccc(F)cc2)C1 [Example 268, (S)-1-(cyclohexyloxy)-3-((S)-3-(4-fluorophenoxy)piperidin-1-yl)propan-2-ol] | 2.12 µM | –
7 | C[C@@H]1C[C@]2(CCc3ccccc3O2)CCN1CCN1CCc2ccccc2C1=O [Example 423, 2-(2-((2S,2′R)-2′-methylspiro[chromane-2,4′-piperidin]-1′-yl)ethyl)-3,4-dihydroisoquinolin-1(2H)-one] | 2.81 µM | –
8 | c1cnc(OC2CCN(CC3Cc4cccnc4C3)CC2)nc1 (stereo not drawn) [Example 157, 6-((4-(pyrimidin-2-yloxy)piperidin-1-yl)methyl)-6,7-dihydro-5H-cyclopenta[b]pyridine] | > 10 µM | –
9 | c1ccc(N2C[C@@H]3C[C@H]2CCN3CC2COCc3ccccc32)cc1 (stereo partly drawn) [Example 322, (1S,5R)-2-(isochroman-4-ylmethyl)-6-phenyl-2,6-diazabicyclo[3.2.1]octane] | > 3.16 µM | –
10 | COc1ccc2c(c1)C(CN1CCC(OCc3cccnc3)CC1)CC2 (stereo not drawn) [Example 246, 3-(((1-((6-methoxy-2,3-dihydro-1H-inden-1-yl)methyl)piperidin-4-yl)oxy)methyl)pyridine] | 0.98 µM | –
11 | O[C@@H](COC1CCCCC1)CN1[C@@H]2CC[C@H]1CN(c1ccc(F)cc1)C2 [Example 290, (R)-1-(cyclohexyloxy)-3-((1R,5S)-3-(4-fluorophenyl)-3,8-diazabicyclo[3.2.1]octan-8-yl)propan-2-ol] | – | 0.002 µM
12 | COc1ccc2c(c1)C(CN1CCC(Oc3ccc(C#N)cc3)CC1)CC2 (stereo not drawn) [Example 120, 4-((1-((6-methoxy-2,3-dihydro-1H-inden-1-yl)methyl)piperidin-4-yl)oxy)benzonitrile] | 0.44 µM | –
13 | Fc1ccc(O[C@H]2CCCN(CCC3CCOc4ccccc43)C2)cc1 (stereo partly drawn) [Example 263, (3S)-1-(2-(chroman-4-yl)ethyl)-3-(4-fluorophenoxy)piperidine] | > 12.9 µM | –
14 | CC1(OCC(O)CN2CCN(c3ccccc3)CC2)COc2ccccc21 (stereo not drawn) [Example 79, 1-((3-methyl-2,3-dihydrobenzofuran-3-yl)oxy)-3-(4-phenylpiperazin-1-yl)propan-2-ol] | 0.36 µM | –
15 | OC(COc1ccccc1)CN1CCCC12CCN(c1ccccc1)CC2 (stereo not drawn) [Example 352, 1-phenoxy-3-(8-phenyl-1,8-diazaspiro[4.5]decan-1-yl)propan-2-ol] | > 5.3 µM | –
16 | O=C1c2ccccc2CCN1CCN1CCOC(Cc2ccccc2)C1 (stereo not drawn) [Example 252, 2-(2-(2-benzylmorpholino)ethyl)-3,4-dihydroisoquinolin-1(2H)-one] | > 16.7 µM | –
17 | COc1cccc(O[C@@H]2CCN(CCN3CCc4ccccc4C3=O)C2)c1 [Example 21, (R)-2-(2-(3-(3-methoxyphenoxy)pyrrolidin-1-yl)ethyl)-3,4-dihydroisoquinolin-1(2H)-one] | 2.56 µM | –
18 | N#Cc1ccc(O[C@@H]2CCN(CCN3CCc4ccccc4C3=O)C2)cc1 [Example 31, (R)-4-((1-(2-(1-oxo-3,4-dihydroisoquinolin-2(1H)-yl)ethyl)pyrrolidin-3-yl)oxy) benzonitrile] | > 16.7 µM | –

Row | Compound | IC50 (read-out: 5HT2A IC50) | IC50 (5HT2A IC50, μM)
19 | COc1cccc(OC2CCN(CC3CCOc4ccccc43)CC2)c1 (stereo not drawn) [Example 164, 1-(chroman-4-ylmethyl)-4-(3-methoxyphenoxy)piperidine] | 0.86 µM | –
20 | OC(CO[C@H]1CCc2ccccc21)CN1CC[C@@H](Oc2cccc(F)c2)C1 (stereo partly drawn) [Example 34, 1-(((S)-2,3-dihydro-1H-inden-1-yl)oxy)-3-((R)-3-(3-fluorophenoxy)pyrrolidin-1-yl)propan-2-ol] | 4.66 µM | –
21 | COc1ccc2c(c1)C(CN1C[C@H]3CC[C@@H]1CN3c1ccccc1)CC2 (single isomer, unassigned) [Compound 314] | > 10 µM | –
22 | c1ccc2c(c1)CCC1(CCN(CCO[C@@H]3CCc4ccccc43)CC1)O2 [Example 431, (R)-1′-(2-((2,3-dihydro-1H-inden-1-yl)oxy)ethyl)spiro[chromane-2,4′-piperidine]] | 0.71 µM | –
23 | O=C1CC2(CN(CC3CCc4ccccc43)C2)Oc2ccccc21 (stereo not drawn) [Example 386, 1-((2,3-dihydro-1H-inden-1-yl)methyl)spiro[azetidine-3,2′-chroman]-4′-one] | 3.76 µM | –
24 | c1ccc(CCN2C[C@@H]3C[C@H]2CN3c2ccccc2)cc1 [Example 305, (1S,4S)-2-phenethyl-5-phenyl-2,5-diazabicyclo[2.2.1]heptane] | > 14.5 µM | –
25 | COc1ccccc1O[C@@H]1CCN(CCN2CCc3ccccc3C2=O)[C@@H]1C [Example 20, 2-(2-((2R,3R)-3-(2-methoxyphenoxy)-2-methylpyrrolidin-1-yl)ethyl)-3,4-dihydroisoquinolin-1(2H)-one] | 0.01 µM | –
26 | Fc1ccc(O[C@@H]2CCN(CC3CCc4cccnc43)C2)cc1 (stereo partly drawn) [Example 7, 7-(((R)-3-(4-fluorophenoxy)pyrrolidin-1-yl)methyl)-6,7-dihydro-5H-cyclopenta[b]pyridine] | 1.01 µM | –
27 | OC(CO[C@H]1CCc2ccccc21)CN1CC[C@H](Oc2cccc(F)c2)C1 (stereo partly drawn) [Example 35, 1-(((S)-2,3-dihydro-1H-inden-1-yl)oxy)-3-((S)-3-(3-fluorophenoxy)pyrrolidin-1-yl)propan-2-ol] | 7.13 µM | –
28 | OC1(CN2CCC[C@@H](Oc3ccc(F)cc3)C2)COCc2ccccc21 (stereo partly drawn) [Example 258, 4-(((R)-3-(4-fluorophenoxy)piperidin-1-yl)methyl)isochroman-4-ol] | 1.5 µM | –
29 | COc1ccc(O[C@H]2CCN(CCN3CCc4ccccc4C3=O)C2)cc1 [Example 28, (S)-2-(2-(3-(4-methoxyphenoxy)pyrrolidin-1-yl)ethyl)-3,4-dihydroisoquinolin-1(2H)-one] | 10 µM | –
30 | Fc1ccc(O[C@H]2CCN(CC3CCc4ncccc43)C2)cc1 (stereo partly drawn) [Example 4, 5-(((S)-3-(4-fluorophenoxy)pyrrolidin-1-yl)methyl)-6,7-dihydro-5H-cyclopenta[b]pyridine] | 1.45 µM | –
31 | COc1ccc2c(c1)[C@@H](CN1C[C@@H]3CC[C@H]1CN3c1ccccc1)CC2 (single isomer, unassigned) [Compound 311] | 0.01 µM | –
32 | OC(CO[C@H]1CCc2ccccc21)CN1CC[C@H](Oc2ccc(F)cc2)C1 (stereo partly drawn) [Example 43, 1-(((S)-2,3-dihydro-1H-inden-1-yl)oxy)-3-((S)-3-(4-fluorophenoxy)pyrrolidin-1-yl)propan-2-ol] | 2.08 µM | –
33 | N#Cc1ccc(OC2CCN(CC3Cc4cccnc4C3)CC2)cc1 (stereo not drawn) [Example 156, 4-((1-((6,7-dihydro-5H-cyclopenta[b]pyridin-6-yl)methyl)piperidin-4-yl)oxy) benzonitrile] | 2.01 µM | –
34 | c1ccc(CN2CCC3(CCc4ccccc4O3)CC2)cc1 [Example 415, 1′-benzylspiro[chromane-2,4′-piperidine]] | 2.15 µM | –
35 | O[C@@H](COC1CCCCC1)CN1CCC(Oc2ccccc2)CC1 [Example 234, (R)-1-(cyclohexyloxy)-3-(4-phenoxypiperidin-1-yl)propan-2-ol] | 0.03 µM | –
36 | O=C1c2ccccc2CCN1CCN1CC[C@@H]2C[C@H]1CN2c1ccccc1 [Example 324, 2-(2-((1S,5R)-6-phenyl-2,6-diazabicyclo[3.2.1]octan-2-yl)ethyl)-3,4-dihydroisoquinolin-1(2H)-one] | > 3.16 µM | –

— patent US11186564B2, “Dual NAV1.2/5HT2a inhibitors for treating CNS disorders” (Sunovion Pharmaceuticals Inc., priority 2016, dated 2021)
